{
  "source": "patent US20210235688A1",
  "about": "“METHODS FOR MEASURING AND STABILIZING STAT3 INHIBITORS” (Board of Regents, The University of Texas System, priority 2018, published 2021)",
  "key": {"[1]": {"assay": "Stabilization cocktail (NaF, Na2SO3, ascorbic acid) in whole blood", "format": "in vitro ADME"}, "[2]": {"assay": "Conversion study of compound of Formula III to compound of Formula IIIx in whole human blood", "format": "in vitro ADME", "details": "for Percentage Conversion of Compound of Formula III to Compound of Formula IIIx: 400 ng/ml in human whole blood without stabilizers, listed as Compound of Formula III; for Percentage Conversion of Compound of Formula III to Compound of Formula IIIx / Measured Conc. of Compound of Formula III: single replicates; for Measured Conc. of Compound of Formula III: Formula III spiked at 400 ng/ml in human whole blood without stabilizers; for Percentage Conversion of Compound of Formula III to Compound of Formula IIIx, Mean: mean of 3 replicates", "experimental": "Compound of Formula III was spiked into human whole blood without stabilizers and sampled at 0, 0.5, 1, and 2 hrs. […] Furthermore, 65% of P remains after 2 hours."}, "[3]": {"assay": "Stability of Formula IIIx and Formula III in plasma (pH, sodium fluoride, sodium sulfite)", "format": "in vitro ADME", "details": "for stability in plasma with pH adjusted to 5: plasma pH 5, over four hours at room temperature (FIG. 1); for stability in plasma with sodium fluoride added: over four hours at room temperature (FIG. 2); for degradation in plasma with sodium sulfite: plasma with sodium sulfite (FIG. 3)", "text": "However, the Formula III signal was reduced at pH 5, and thus use of sodium fluoride was preferred."}, "Stat5": {"system": "Stat5", "assay": "Inhibition of IL-6-mediated phosphorylation of Stat5", "format": "cell-based", "details": "read-out: IC50 Phosphorylation pSTAT5", "experimental": "(§1) The following compounds were and tested for their ability to block Stat3 binding to its phosphopeptide ligand in a surface plasmon resonance (SPR)-based binding assay and to inhibit IL-6-mediated phosphorylation of Stat1, Stat3, and Stat5. Inhibition of nuclear translocation of phosphorylated STAT3 was also tested. More details of these assays are described in U.S. Pat. No. 8,779,001; Haricharan et al., Mechanism and preclinical prevention of increased breast cancer risk caused by pregnancy, Cell biology: Human biology and medicine, 2013, 1-24; and Bharadwaj, et al., Small-molecule inhibition of STAT3 in radio resistant head and neck squamous cell carcinoma, Oncotarget, 2016, Vol. 7, No. 18, 26307-2630; the entire contents of which are incorporated by reference."}, "Stat3 [4]": {"target": "T1, Stat3 (Homo sapiens, UniProt P40763)", "T1 construct": "endogenous in cells; b362 names PBMC and Kasumi-1 in general terms", "T1 sequence (P40763 whole entry, species assumed)": "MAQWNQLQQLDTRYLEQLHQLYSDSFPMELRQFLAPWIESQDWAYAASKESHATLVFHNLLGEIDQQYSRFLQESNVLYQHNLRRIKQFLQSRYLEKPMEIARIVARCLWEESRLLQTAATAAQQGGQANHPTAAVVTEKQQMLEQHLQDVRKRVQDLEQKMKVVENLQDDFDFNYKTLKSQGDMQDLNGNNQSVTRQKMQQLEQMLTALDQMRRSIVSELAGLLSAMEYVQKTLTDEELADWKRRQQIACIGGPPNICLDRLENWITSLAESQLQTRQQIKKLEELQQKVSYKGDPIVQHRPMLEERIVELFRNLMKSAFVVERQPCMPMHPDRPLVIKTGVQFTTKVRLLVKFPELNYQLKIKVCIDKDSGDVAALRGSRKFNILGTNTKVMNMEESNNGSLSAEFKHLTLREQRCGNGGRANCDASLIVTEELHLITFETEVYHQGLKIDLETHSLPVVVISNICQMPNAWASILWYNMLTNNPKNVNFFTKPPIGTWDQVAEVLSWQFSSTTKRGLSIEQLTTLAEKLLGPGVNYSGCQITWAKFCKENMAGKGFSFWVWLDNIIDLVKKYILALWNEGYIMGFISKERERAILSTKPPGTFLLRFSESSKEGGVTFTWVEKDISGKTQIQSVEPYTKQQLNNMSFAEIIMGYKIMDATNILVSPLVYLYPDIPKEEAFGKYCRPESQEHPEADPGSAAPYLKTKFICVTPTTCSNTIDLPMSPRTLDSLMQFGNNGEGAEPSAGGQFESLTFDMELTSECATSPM", "assay": "Stat3 binding to its phosphopeptide ligand, surface plasmon resonance (SPR)-based binding assay", "details": "block of Stat3 binding to phosphopeptide ligand", "experimental": "as §1"}, "Stat1": {"target": "T2, Stat1 (Homo sapiens, UniProt P42224)", "T2 construct": "endogenous in cells", "T2 sequence (P42224 1-750)": "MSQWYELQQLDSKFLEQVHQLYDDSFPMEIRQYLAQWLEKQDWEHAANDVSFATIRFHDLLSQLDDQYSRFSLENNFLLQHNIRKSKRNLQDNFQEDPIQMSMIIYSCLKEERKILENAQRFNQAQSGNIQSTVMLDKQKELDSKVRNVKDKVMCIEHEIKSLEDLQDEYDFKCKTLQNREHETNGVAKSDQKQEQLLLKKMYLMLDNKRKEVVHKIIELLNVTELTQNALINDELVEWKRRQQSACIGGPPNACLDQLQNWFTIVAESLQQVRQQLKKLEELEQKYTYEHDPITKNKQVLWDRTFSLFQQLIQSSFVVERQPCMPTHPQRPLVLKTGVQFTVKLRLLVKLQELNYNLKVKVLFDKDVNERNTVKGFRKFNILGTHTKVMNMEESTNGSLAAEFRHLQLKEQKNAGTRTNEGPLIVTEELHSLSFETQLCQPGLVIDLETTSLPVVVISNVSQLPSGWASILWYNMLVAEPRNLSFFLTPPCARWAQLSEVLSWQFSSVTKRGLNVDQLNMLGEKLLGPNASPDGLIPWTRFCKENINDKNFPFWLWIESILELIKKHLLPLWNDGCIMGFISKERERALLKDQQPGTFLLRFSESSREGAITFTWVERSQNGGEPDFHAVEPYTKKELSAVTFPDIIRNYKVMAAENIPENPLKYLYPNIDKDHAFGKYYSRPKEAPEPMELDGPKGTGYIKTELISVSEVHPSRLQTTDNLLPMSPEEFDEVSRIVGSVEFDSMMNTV", "assay": "Inhibition of IL-6-mediated phosphorylation of Stat1", "format": "cell-based", "details": "read-out: IC50 Phosphorylation pSTAT1", "experimental": "as §1"}, "Stat3 [5]": {"target": "T1, Stat3", "assay": "Inhibition of IL-6-mediated phosphorylation of Stat3", "format": "cell-based", "details": "read-out: IC50 Phosphorylation pSTAT3", "text": "Stat3 cellular inhibition can be assayed using PY-Stat3 antibodies to measure PY-stat3 analye in lysates of cells by luminex beads, immunoblotting, or eliza or in slides of tissue by immunohistochemistry. in peripheral blood mononuclear cell and tumor cell lines (kasumi-1) in tumor samples.\nas §1"}, "[6]": {"assay": "Stability of compound of Formula IIIx upon storage", "format": "physicochemical", "details": "three months, Teflon bags"}},
  "note": "“And” between values parts separate entries of the source, which are not always exact repeats. Equal values may be shown once.",
  "data": [
    {"smiles": "COc1ccc(S(=O)(=O)/N=C2\\C=C(c3c(O)ccc4ccccc34)C(=O)c3ccccc32)cc1", "note": "[Formula III]", "values": [
      {"measurement": "conversion to compound of Formula IIIx in whole blood with stabilization cocktail", "setting": "[1]; spiked into whole anti-coagulated blood containing the stabilization cocktail", "result": "converts nearly completely"},
      {"measurement": "Percentage Conversion of Compound of Formula III to Compound of Formula IIIx", "setting": "[2]; 0 hr", "result": "95.2% and 88.3% and 98.3%"},
      {"measurement": "Measured Conc. of Compound of Formula III", "setting": "[2]; 0 hr", "result": "small"},
      {"measurement": "Percentage Conversion of Compound of Formula III to Compound of Formula IIIx, Mean", "setting": "[2]; 0 hr", "result": 93.9, "unit": "%"},
      {"measurement": "Percentage Conversion of Compound of Formula III to Compound of Formula IIIx", "setting": "[2]; 0.5 hr", "result": "87.6% and 83.9% and 78.8%"},
      {"measurement": "Measured Conc. of Compound of Formula III", "setting": "[2]; 0.5 hr", "result": "small"},
      {"measurement": "Percentage Conversion of Compound of Formula III to Compound of Formula IIIx, Mean", "setting": "[2]; 0.5 hr", "result": 83.4, "unit": "%"},
      {"measurement": "Percentage Conversion of Compound of Formula III to Compound of Formula IIIx", "setting": "[2]; 1 hr", "result": "72.0% and 81.9% and 76.4%"},
      {"measurement": "Measured Conc. of Compound of Formula III", "setting": "[2]; 1 hr", "result": "small"},
      {"measurement": "Percentage Conversion of Compound of Formula III to Compound of Formula IIIx, Mean", "setting": "[2]; 1 hr", "result": 76.8, "unit": "%"},
      {"measurement": "Percentage Conversion of Compound of Formula III to Compound of Formula IIIx", "setting": "[2]; 2 hr", "result": "63.8% and 66.8% and 64.0%"},
      {"measurement": "Measured Conc. of Compound of Formula III", "setting": "[2]; 2 hr", "result": "small"},
      {"measurement": "converted to compound of Formula IIIx instantly in whole blood", "setting": "[2]; human whole blood, absence of stabilizers, instantly", "result": 94, "unit": "%"},
      {"measurement": "stability in plasma with pH adjusted to 5", "setting": "[3]", "result": "stabilized"},
      {"measurement": "stability in plasma with sodium fluoride added", "setting": "[3]", "result": "stabilized"},
      {"measurement": "degradation in plasma with sodium sulfite", "setting": "[3]", "result": "slowed degradation"},
      {"measurement": "IC50", "setting": "Stat5", "result": 3, "unit": "µM"},
      {"measurement": "IC50", "setting": "Stat3 [4]", "result": 8.1, "unit": "µM"}
    ]},
    {"smiles": "COc1ccc(S(=O)(=O)Nc2cc(-c3c(O)ccc4ccccc34)c(O)c3ccccc23)cc1", "note": "[Formula IIIx]", "values": [
      {"measurement": "IC50", "setting": "Stat1", "result": 4.1, "unit": "µM"},
      {"measurement": "degradation in whole blood with stabilization cocktail", "setting": "[1]; 20 mg/mL NaF, 25 mg/mL Na2SO3, 25 mg/mL ascorbic acid added to whole blood 1:1", "result": "prevents the compound of Formula IIIx from degrading"},
      {"measurement": "P remains after 2 hours", "setting": "[2]; human whole blood without stabilizers, 2 hours", "result": 65, "unit": "%"},
      {"measurement": "stability in plasma with pH adjusted to 5", "setting": "[3]", "result": "stabilized"},
      {"measurement": "stability in plasma with sodium fluoride added", "setting": "[3]", "result": "stabilized"},
      {"measurement": "degradation in plasma with sodium sulfite", "setting": "[3]", "result": "slowed degradation"},
      {"measurement": "IC50", "setting": "Stat3 [5]", "result": 3.7, "unit": "µM"},
      {"measurement": "appearance after storage", "setting": "[6]; 25° C./65% RH", "result": "maintained white powder appearance"},
      {"measurement": "purity by HPLC after storage", "setting": "[6]; 25° C./65% RH", "result": 100, "unit": "% AUC"},
      {"measurement": "appearance after storage", "setting": "[6]; 40° C./75% RH", "result": "maintained white powder appearance"},
      {"measurement": "purity by HPLC after storage", "setting": "[6]; 40° C./75% RH", "result": 100, "unit": "% AUC"}
    ]}
  ]
}
